In patent US6706664B1, “Benzoxazole compounds, process for the preparation thereof and herbicides” (UBE Industries, Ltd., priority 1999, dated 2004):

How the values were obtained:
Design in all cases: key: 0: normal development; 1: Less damaged; 2: Slightly damaged; 3: Moderately damaged; 4: Severely damaged; 5: All killed
barnyardgrass [1] = assay: Soil treatment test for upland field; assay type: in vivo, Echinochloa crusgalli; details: 500 g/ha, glass house 25° C., 3 weeks
Description: (§1) (0: normal development, 1: Less damaged, 2: Slightly damaged, 3: Moderately damaged, 4: Severely damaged, 5: All killed).
(§2) Wagner pots, each having an area of 1/5000 are, were packed with Ube soil (alluvial soil), and then each seed of corn, soybean, cotton, wheat, solgum, sugar beat, Large crabgrass, barnyardgrass, green foxtail, blackgrass, annual bluegrass, common lambsquartes, livid amaranth and velvetleaf were planted and covered with soil.
(§3) Each wettable powder of the desired compounds (I) shown in Table 1 prepared in accordance with Example 2 was diluted with water containing a surfactant (0.05%) and uniformly sprayed on the surface of each soil so that an effective concentration of the compound (I) in each herbicide became 500 g/ha. These plants were controlled in a glass house at an average temperature of 25° C. for 3 weeks, and then herbicidal effects thereof were investigated.
(§4) The herbicidal effects were evaluated according to the evaluation method described in the above (1).

monochoria = assay: Herbicidal test for paddy field; assay type: in vivo, Monochoria vaginalis; details: paddy field pot, 500 g/ha dropwise at 1.5 leaf stage of barnyardgrass, 3 weeks, rank vs non-treated
Protocol: (§5) Wagner pots, each having an area of 1/5000 are, were packed with Ube soil (alluvial soil) and planted with seeds or tubers of young rice plant, barnyardgrass, bulrush, flat sedge and monochoria. Then, the pots were filled with water to a depth of 3 cm.
(§6) Each wettable powder of the desired compounds (I) shown in Table 1 prepared in accordance with Example 2 was diluted with water containing a surfactant (0.05%) and subjected to dropwise addition treatment by using pipet so that an effective concentration of the compound (I) in each herbicide became 500 g/ha at 1.5 leaf stage of barnyardgrass.
(§7) These plants were controlled in a glass house at an average temperature of 25° C. for 3 weeks, and then herbicidal effects thereof were investigated.
(§8) The herbicidal effects are evaluated according to the following 6 ranks as compared with non-treated district.
as §1

bulrush = assay: Herbicidal test for paddy field; assay type: in vivo, Scrips juncoides; details: paddy field pot, 500 g/ha dropwise at 1.5 leaf stage of barnyardgrass, 3 weeks, rank vs non-treated
Protocol: as §5, §6, §7, §8, §1

young rice plant = assay: Herbicidal test for paddy field; assay type: in vivo; details: paddy field pot, 500 g/ha dropwise at 1.5 leaf stage of barnyardgrass, 3 weeks, rank vs non-treated
Protocol: as §5, §6, §7, §8, §1

livid amaranth [2] = assay: Soil treatment test for upland field; assay type: in vivo, Amaranthus lividus; details: 500 g/ha, glass house 25° C., 3 weeks
Description: as §1, §2, §3, §4

annual bluegrass [3] = assay: Soil treatment test for upland field; assay type: in vivo, Poa annua; details: 500 g/ha, glass house 25° C., 3 weeks
Description: as §1, §2, §3, §4

green foxtail [4] = assay: Soil treatment test for upland field; assay type: in vivo, Setaria viridis; details: 500 g/ha, glass house 25° C., 3 weeks
Description: as §1, §2, §3, §4

Large crabgrass [5] = assay: Soil treatment test for upland field; assay type: in vivo, Digitaria adscendens; details: 500 g/ha, glass house 25° C., 3 weeks
Description: as §1, §2, §3, §4

wheat [6] = assay: Soil treatment test for upland field; assay type: in vivo; details: 500 g/ha, glass house 25° C., 3 weeks
Description: as §1, §2, §3, §4

sugar beat [7] = assay: Soil treatment test for upland field; assay type: in vivo; details: 500 g/ha, glass house 25° C., 3 weeks
Description: as §1, §2, §3, §4

solgum [8] = assay: Soil treatment test for upland field; assay type: in vivo; details: 500 g/ha, glass house 25° C., 3 weeks
Description: as §1, §2, §3, §4

soybean = assay: Soil treatment test for upland field; assay type: in vivo; details: 500 g/ha, glass house 25° C., 3 weeks
Description: as §1, §2, §3, §4

cotton = assay: Soil treatment test for upland field; assay type: in vivo; details: 500 g/ha, glass house 25° C., 3 weeks
Description: as §1, §2, §3, §4

corn [9] = assay: Soil treatment test for upland field; assay type: in vivo; details: 500 g/ha, glass house 25° C., 3 weeks
Description: as §1, §2, §3, §4

barnyardgrass [10] = assay: Herbicidal test for paddy field; assay type: in vivo, Echinochloa crusgalli; details: paddy field pot, 500 g/ha dropwise at 1.5 leaf stage of barnyardgrass, 3 weeks, rank vs non-treated
Protocol: as §5, §6, §7, §8, §1

common lambsquartes [11] = assay: Soil treatment test for upland field; assay type: in vivo, Chenopodium album; details: 500 g/ha, glass house 25° C., 3 weeks
Description: as §1, §2, §3, §4

blackgrass = assay: Soil treatment test for upland field; assay type: in vivo, Alopecurus aegualis; details: 500 g/ha, glass house 25° C., 3 weeks
Description: as §1, §2, §3, §4

velvetleaf [12] = assay: Soil treatment test for upland field; assay type: in vivo, Abutilon theophrasti; details: 500 g/ha, glass house 25° C., 3 weeks
Description: as §1, §2, §3, §4

morning glory = assay: Foliar spread test for upland field; assay type: in vivo, Ipomoea spps.; details: foliar spray 500 ppm, 3 weeks, rank vs non-treated
Description: as §1
(§9) Wagner pots, each having an area of 1/5000 are, were packed with volcanic ash soil and then each seed of corn, soybean, cotton, wheat, solgum, sugar beat, Large crabgrass, barnyardgrass, green foxtail, blackgrass, annual bluegrass, common lambsquartes, livid amaranth, velvetleaf and morning glory was planted, covered with soil and grown in a glass house at an average temperature of […] for about 2 weeks.
(§10) Each wettable powder of the desired compounds (I) shown in Table 1 prepared in accordance with Example 2 was diluted to 500 ppm with water containing a surfactant (0.5%) and then uniformly sprayed on the above respective plants.
(§11) After these plants were controlled in a glass house at an average temperature of 25° C. for 3 weeks, the herbicidal effects thereof were investigated.
as §4

common lambsquartes [13] = assay: Foliar spread test for upland field; assay type: in vivo, Chenopodium album; details: foliar spray 500 ppm, 3 weeks, rank vs non-treated
Description: as §1, §9, §10, §11, §4

wheat [14] = assay: Foliar spread test for upland field; assay type: in vivo; details: foliar spray 500 ppm, 3 weeks, rank vs non-treated
Description: as §1, §9, §10, §11, §4

sugar beat [15] = assay: Foliar spread test for upland field; assay type: in vivo; details: foliar spray 500 ppm, 3 weeks, rank vs non-treated
Description: as §1, §9, §10, §11, §4

solgum [16] = assay: Foliar spread test for upland field; assay type: in vivo; details: foliar spray 500 ppm, 3 weeks, rank vs non-treated
Description: as §1, §9, §10, §11, §4

corn [17] = assay: Foliar spread test for upland field; assay type: in vivo; details: foliar spray 500 ppm, 3 weeks, rank vs non-treated
Description: as §1, §9, §10, §11, §4

velvetleaf [18] = assay: Foliar spread test for upland field; assay type: in vivo, Abutilon theophrasti; details: foliar spray 500 ppm, 3 weeks, rank vs non-treated
Description: as §1, §9, §10, §11, §4

green foxtail [19] = assay: Foliar spread test for upland field; assay type: in vivo, Setaria viridis; details: foliar spray 500 ppm, 3 weeks, rank vs non-treated
Description: as §1, §9, §10, §11, §4

livid amaranth [20] = assay: Foliar spread test for upland field; assay type: in vivo, Amaranthus lividus; details: foliar spray 500 ppm, 3 weeks, rank vs non-treated
Description: as §1, §9, §10, §11, §4

annual bluegrass [21] = assay: Foliar spread test for upland field; assay type: in vivo, Poa annua; details: foliar spray 500 ppm, 3 weeks, rank vs non-treated
Description: as §1, §9, §10, §11, §4

Large crabgrass [22] = assay: Foliar spread test for upland field; assay type: in vivo, Digitaria adscendens; details: foliar spray 500 ppm, 3 weeks, rank vs non-treated
Description: as §1, §9, §10, §11, §4

Row | SMILES | Effects Barnyardgrass (barnyardgrass [1]) | Effect Monochoria (monochoria) | Effect Bulrush (bulrush) | Effect Young rice plant (young rice plant) | Effects Livid amaranth (livid amaranth [2]) | Effects Annual bluegrass (annual bluegrass [3]) | Effects Green foxtail (green foxtail [4]) | Effects Large crabgrass (Large crabgrass [5]) | Effects Wheat (wheat [6]) | Effects Sugar beat (sugar beat [7]) | Effects Solgum (solgum [8]) | Effects Soybean (soybean) | Effects Cotton (cotton) | Effects Corn (corn [9]) | Effect Barnyardgrass (barnyardgrass [10]) | Effects Common lambsquarters (common lambsquartes [11]) | Effects Blackgrass (blackgrass) | Effects Velvetleaf (velvetleaf [12]) | Effects Wheat (wheat [14]) | Effects Sugar beat (sugar beat [15]) | further results
1 | CCC(Oc1cccc(C(F)(F)F)c1)c1nc2ccc(Cl)cc2o1 (stereo not shown) [Compound 10] | 2 | 1 | 3 | 0 | 4 | 4 | 4 | 5 | 0 | 0 | 0 | 0 | 0 | 0 | 4 | 2 | 2 |  |  |  | 
2 | CCC(Oc1cccc(C(F)(F)F)c1)c1nc2cc(C(F)(F)F)ccc2o1 (stereo not shown) [Compound 198] | 4 | 5 | 1 | 1 | 5 | 5 | 5 | 5 | 1 | 5 | 2 |  | 1 | 2 | 4 | 4 | 5 | 3 |  |  | 
3 | CCC(Oc1ccc(F)c(C(F)(F)F)c1)c1nc2cc(C#N)c(C#N)cc2o1 (stereo not shown) [Compound 316] |  | 5 | 3 | 0 | 5 | 4 | 5 | 5 | 0 | 5 | 0 | 0 | 0 | 0 |  | 5 | 4 | 5 | 1 | 5 | Effects Morning glory (morning glory): 2; Effects Common lambsquarters (common lambsquartes [13]): 3; Effects Solgum (solgum [16]): 1; Effects Corn (corn [17]): 2; Effects Velvetleaf (velvetleaf [18]): 3; Effects Green foxtail (green foxtail [19]): 5; Effects Livid amaranth (livid amaranth [20]): 5
4 | CCCC(Oc1cccc(C#N)c1)c1nc2cc(S(C)(=O)=O)c(C)cc2o1 (stereo not shown) [Compound 492] |  | 5 | 3 | 0 |  |  |  |  |  |  |  |  |  |  | 2 |  |  |  | 1 | 4 | Effects Solgum (solgum [16]): 1; Effects Corn (corn [17]): 1; Effects Velvetleaf (velvetleaf [18]): 3; Effects Green foxtail (green foxtail [19]): 2; Effects Livid amaranth (livid amaranth [20]): 4
5 | CCC(Oc1ccc(F)c(C(F)(F)F)c1)c1nc2cc(OC)ccc2o1 (stereo not shown) [Compound 503] | 5 |  |  |  | 5 | 5 | 5 | 5 | 2 | 5 | 2 | 1 | 1 | 2 |  | 5 | 5 | 5 | 2 | 4 | Effects Common lambsquarters (common lambsquartes [13]): 5; Effects Solgum (solgum [16]): 2; Effects Corn (corn [17]): 2; Effects Annual bluegrass (annual bluegrass [21]): 3; Effects Velvetleaf (velvetleaf [18]): 3; Effects Green foxtail (green foxtail [19]): 5; Effects Large crabgrass (Large crabgrass [22]): 3; Effects Livid amaranth (livid amaranth [20]): 5
